Laboratory results published in patent US9049864B2, “Pyridazinone herbicidal compounds” (Syngenta Limited, priority 2012, dated 2015).

Assays:
Assay in all cases: Post-emergence herbicidal glasshouse test, percentage damage to the plant
Format in all cases: in vivo
Conditions in all cases: post-emergence, 1000 g/ha, evaluated after 13 days
[1] = test system: Alopecurus myosuroides (ALOMY)
Description: (§1) Seeds of a variety of test species are sown in standard soil in pots:—Solanum nigrum (SOLNI), Amaranthus retoflexus (AMARE), Setaria faberi (SETFA), Alopecurus myosuroides (ALOMY), Echinochloa crus-galli (ECHCG), Ipomoea hederacea (IPOHE). After 8 days cultivation (post-emergence) under controlled conditions in a glasshouse (at 24/16° C., day/night; 14 hours light; 65% humidity), the plants are sprayed with an aqueous spray solution derived from the formulation of the technical active ingredient in acetone/water (50:50) solution containing 0.5% Tween 20 (polyoxyethelyene sorbitan monolaurate, CAS RN 9005-64-5). Compounds are applied at 1000 g/ha. The test plants are then grown in a glasshouse under controlled conditions in a glasshouse (at 24/16° C., day/night; 14 hours light; 65% humidity) and watered twice daily. After 13 days, the test is evaluated for the percentage damage caused to the plant. The biological activities are shown in the following table on a five point scale (5=80-100%; 4=60-79%; 3=40-59%; 2=20-39%; 1=0-19%). A comparative experiment is conducted to compare the biological efficacy of a compound of the present invention with those of WO 2011/045271. The test is performed as outlined above using the following compounds. Three different application rates are employed (250 g/ha, 500 g/ha and 1000 g/ha).

[2] = test system: Solanum nigrum (SOLNI)
Description: as §1

[3] = test system: Echinochloa crus-galli (ECHCG)
Description: as §1

[4] = test system: Amaranthus retoflexus (AMARE)
Description: as §1

[5] = test system: Setaria faberi (SETFA)
Description: as §1

[6] = test system: Ipomoea hederacea (IPOHE)
Description: as §1

Structure (SMILES) | POST Application ALOMY, percentage damage (five point scale) [1] | POST Application SOLNI, percentage damage (five point scale) [2] | POST Application ECHCG, percentage damage (five point scale) [3] | POST Application AMARE, percentage damage (five point scale) [4] | POST Application SETFA, percentage damage (five point scale) [5] | POST Application IPOHE, percentage damage (five point scale) [6]
CN1N=C(Br)C(=O)C(n2c(Cl)c(Cl)c3ccccc32)C1=O (stereo not drawn) [Compound 2.028] | 1 (1=0-19%) | 5 (5=80-100%) | 1 (1=0-19%) | 5 (5=80-100%) | 1 (1=0-19%) | 5 (5=80-100%)
CC1=NN(C)C(=O)C(n2c(Br)c(Cl)c3ccccc32)C1=O (stereo not drawn) [Compound 1.026] | 2 (2=20-39%) | 5 (5=80-100%) | 4 (4=60-79%) | 5 (5=80-100%) | 3 (3=40-59%) | 5 (5=80-100%)
Cc1cn(C2C(=O)C=NN(C)C2=O)c2ccccc12 (stereo not drawn) [Compound 1.007] | 1 (1=0-19%) | 5 (5=80-100%) | 1 (1=0-19%) | 2 (2=20-39%) | 1 (1=0-19%) | 1 (1=0-19%)
CCCOC1=NN(C)C(=O)C(n2c(Cl)c(Cl)c3ccccc32)C1=O (stereo not drawn) [Compound 2.018] | 1 (1=0-19%) | 4 (4=60-79%) | 1 (1=0-19%) | 3 (3=40-59%) | 1 (1=0-19%) | 4 (4=60-79%)
Cc1nn(C)c(=O)c(-n2c(Cl)c(Cl)c3ccccc32)c1OC(=O)OCC(C)C [Compound 3.010] | 1 (1=0-19%) | 5 (5=80-100%) | 3 (3=40-59%) | 5 (5=80-100%) | 1 (1=0-19%) | 5 (5=80-100%)
CN1N=C(COCC(F)(F)F)C(=O)C(n2c(Cl)c(Cl)c3ccccc32)C1=O (stereo not drawn) [Compound 2.012] | 1 (1=0-19%) | 4 (4=60-79%) | 1 (1=0-19%) | 1 (1=0-19%) | 1 (1=0-19%) | 4 (4=60-79%)
C=C(C)C1=NN(C)C(=O)C(n2c(Cl)c(Cl)c3ccccc32)C1=O (stereo not drawn) [Compound 2.016] | 1 (1=0-19%) | 4 (4=60-79%) | 1 (1=0-19%) | 4 (4=60-79%) | 1 (1=0-19%) | 2 (2=20-39%)
CC(C)CC1=NN(C)C(=O)C(n2c(Cl)c(Cl)c3ccccc32)C1=O (stereo not drawn) [Compound 2.009] | 1 (1=0-19%) | 4 (4=60-79%) | 1 (1=0-19%) | 1 (1=0-19%) | 1 (1=0-19%) | 2 (2=20-39%)
CC1=NN(C)C(=O)C(n2c(Br)c(Br)c3ccc(Br)cc32)C1=O (stereo not drawn) [Compound 1.023] | 2 (2=20-39%) | 5 (5=80-100%) | 3 (3=40-59%) | 5 (5=80-100%) | 1 (1=0-19%) | 5 (5=80-100%)
CC1=NN(C)C(=O)C(n2cc(Br)c3ccccc32)C1=O (stereo not drawn) [Compound 1.025] | 1 (1=0-19%) | 5 (5=80-100%) | 1 (1=0-19%) | 4 (4=60-79%) | 1 (1=0-19%) | 3 (3=40-59%)
CC1=NN(C)C(=O)C(n2c(Cl)c(Br)c3ccccc32)C1=O (stereo not drawn) [Compound 1.021] | 2 (2=20-39%) | 5 (5=80-100%) | 2 (2=20-39%) | 5 (5=80-100%) | 1 (1=0-19%) | 5 (5=80-100%)
COC1=NN(C)C(=O)C(n2c(Cl)c(Cl)c3ccccc32)C1=O (stereo not drawn) [Compound 2.022] | 1 (1=0-19%) | 5 (5=80-100%) | 1 (1=0-19%) | 4 (4=60-79%) | 1 (1=0-19%) | 5 (5=80-100%)
Cc1nn(C)c(=O)c(-n2c(Cl)c(Cl)c3ccccc32)c1OC(=O)C(C)C [Compound 3.003] | 1 (1=0-19%) | 5 (5=80-100%) | 4 (4=60-79%) | 5 (5=80-100%) | 1 (1=0-19%) | 5 (5=80-100%)
CC1=NN(C)C(=O)C(n2c(Br)c(Br)c3cc(Br)ccc32)C1=O (stereo not drawn) [Compound 1.022] | 1 (1=0-19%) | 5 (5=80-100%) | 2 (2=20-39%) | 3 (3=40-59%) | 1 (1=0-19%) | 5 (5=80-100%)
COC(=O)Oc1c(C)nn(C)c(=O)c1-n1nc(Cl)c2ccccc21 [Compound 3.005] | 1 (1=0-19%) | 5 (5=80-100%) | 3 (3=40-59%) | 4 (4=60-79%) | 1 (1=0-19%) | 5 (5=80-100%)
COCC1=NN(C)C(=O)C(n2c(Cl)c(Cl)c3ccccc32)C1=O (stereo not drawn) [Compound 2.008] | 1 (1=0-19%) | 5 (5=80-100%) | 1 (1=0-19%) | 3 (3=40-59%) | 1 (1=0-19%) | 5 (5=80-100%)
CCOC1=NN(C)C(=O)C(n2c(Cl)c(Cl)c3ccccc32)C1=O (stereo not drawn) [Compound 2.023] | 1 (1=0-19%) | 4 (4=60-79%) | 1 (1=0-19%) | 2 (2=20-39%) | 1 (1=0-19%) | 4 (4=60-79%)
